Entries after “also recorded” stand apart in the source; their conditions may differ. Like-named read-outs stand apart in the source and are kept apart here.
Tests used:
[1] = Pharmacokinetics of DON in swine plasma and CSF; settings: 60 min post-administration
[2] = Stability in human plasma; assay type: in vitro ADME
[3] = Stability in monkey plasma; assay type: in vitro ADME
LPS-treated mice = experiment: LPS-induced deficit in contextual fear memory reconsolidation; assay type: in vivo, mouse; settings: 1.9 mg/kg, i.p. co-administered with LPS 0.3 mg/kg, i.p. on Day 2
Method: Fear conditioning and testing were performed in sound-attenuating chambers equipped with a metal grid floor to deliver calibrated inescapable footshocks. Fear conditioning (Day 1) consisted of a 2 minute habituation period followed by three 20 second 80 dB 2 kHz tones co-terminating in 0.4 mA footshocks separated by 1 minute interstimulus intervals. One day later (Day 2), each mouse was randomized into one of four treatment groups (PBS/Vehicle, PBS/9, LPS/Vehicle, LPS/9) and co-administered either LPS (0.3 mg/kg, i.p.) or filtered PBS with either 9 (1.9 mg/kg, i.p.) or Vehicle. Four hours later, each mouse was exposed to a reactivation session in which they were placed back in the fear conditioning context for 15 minutes. One day later (Day 3), each mouse underwent a test for fear memory reconsolidation by being placed again in the fear conditioning context for 10 minutes. For each session, time spent freezing was determined using automated motion detection software (CleverSys) and converted to percentages.
Freezing percentages during the reconsolidation test were grouped by treatment into 2 minute bins. Between group differences were determined by repeated measure two-way ANOVA and post hoc Dunnett's test with significance defined as p<0.05.

EcoHIV-infected mice [4] = experiment: Radial arm water maze, therapeutic DON treatment of EcoHIV-infected mice; assay type: in vivo, mouse; settings: DON 1 mg/kg every other day started 26 days after EcoHIV infection; tests from day 30
Method: The experimental design was for DON prophylaxis except that mice were infected first and DON administration at 1 mg/kg every other day started on Day 26 after infection.

STX1A = experiment: Gene expression by QPCR in basal ganglia brain tissues of EcoHIV-infected mice; assay type: in vivo, mouse; settings: DON treatment reversal experiment; tissues collected 15 min after last DON treatment
Method: Relative extent of gene expression tested by QPCR in basal ganglia brain tissues obtained from mice tested in DON treatment reversal experiment shown in FIG. 2A, FIG. 2B, and FIG. 2C. The tissues were collected 15 min after the last DON treatment;

NRGN = experiment: as above; assay type: in vivo, mouse; settings: DON treatment reversal experiment; tissues collected 15 min after last DON treatment
[5] = DON levels in plasma, CSF and basal ganglia of mice (LC-MS/MS); assay type: in vivo; settings: C57Bl, mouse, 15 minutes after dosing, DON 1 mg/kg
Method: DON was spiked into untreated mouse plasma to generate standards at concentrations from 10 nM to 100 μM at half-log intervals. Butanol with 3N HCl (250 μL) was added to standards and samples (50 μL) and centrifuged at 16,000×g for 5 minutes to precipitate proteins. […] After derivatization the samples were dried at 45° C. under a nitrogen stream. Samples were resuspended in 50 μL 70/30 water/acetonitrile, vortexed and centrifuged at 16,000×g. […] Standards within the quantifiable range were used to generate a standard curve. Samples below the limit of quantification (BLQ) were assigned a value of 0.
Brain analysis: Brain sections were weighed. DON was spiked into untreated mouse brain tissue to generate standards as described above. Butanol with 3N HCl (5 μL/mg) was added to standards and samples and homogenized by pestle followed by centrifugation at 16,000×g. An aliquot (200 μL) of the supernatant was transferred to a new tube and processed as described in the plasma analysis section. Twenty microliters was injected for analysis as described hereinabove.

glutamate in CSF = experiment: CSF glutamate levels in EcoHIV mice (LC/MS); assay type: in vivo, mouse
Method: CSF samples were derivatized with dabsyl chloride for analysis. To prepare a dabsyl chloride stock, acetone was added to dabsyl chloride to 10 mM concentration, vortexed, water bath sonicated for 10 minutes followed by heating to 60° C. for 10 minutes, vortexing again, centrifugation for 5 minutes at 16,000×g and taking the supernatant. Ten microliter standards of glutamate were prepared in artificial CFS by serial dilution. To each standard and sample, one volume of 0.2 M sodium bicarbonate buffer (pH 9.0 containing 100 μM glutamate-d5 as internal standard) and 2 volumes dabsyl chloride stock was added. Samples were incubated at 60° C. 10 minutes to derivatize. […] Glutamate was quantifiable to 10 nM.
Male C57BL6 mice were sham or EcoHIV-inoculated (4e6 pg p24, i.p.) then randomized to receive vehicle or compound 25 (1.82 mg/kg, i.p. every other day) beginning 15 post-inoculation. On day 33 post-inoculation, all mice were deeply anesthetized with isoflurane 30 minutes post-last dose, and CSF was terminally sampled from the cistema magna prior to measurement of glutamate concentrations by LC/MS-MS. EcoHIV infection caused increases in CSFS glutamate that were normalized by compound 25 treatment. Excluding values >2SD from mean, n=4-5/group. Analysis by two-way ANOVA followed by post-hoc Fisher's LSD, *p<0.05, ***p<0.001. Data are presented as the mean+SEM.

EAE mice = settings: cited from earlier work
EcoHIV-infected mice [6] = experiment: Radial arm water maze, DON prophylaxis in EcoHIV-infected mice
CSDS mice [7] = experiment: Three-chambered social approach test after chronic social defeat stress (CSDS); assay type: in vivo, mouse
Method: (§1) Compound 25 was synthesized by our laboratory. For all pharmacokinetic and efficacy studies, compound 25 was administered per oral (p.o.) at a dose of 1.82 mg/kg (1 mg/kg DON equivalent) in 50 mM HEPES-buffered saline.
Male 7- to 8-week-old C57BL/6J (C57) mice (25-30 g; Jackson Laboratory, Bar Harbor, Me.) and 4- to 6-month-old CD-1 retired breeders (35-45 g; Charles River Laboratories, Wilmington, Mass.) were used for all experiments. Mice were housed on a reversed 12-h light/dark cycle, and maintained in a humidity- and temperature-controlled room with water and food available ad libitum. CD-1 mice were singly housed except during social defeats. C57 mice were group housed before starting CSDS and singly housed after CSDS. Behavioral experiments were conducted during the dark cycle. All studies were conducted with approved protocols from the Johns Hopkins University Institutional Animal Care and Use Committee and were in accordance with the NIH guidelines for the Care and Use of Laboratory Animals.
Mice were exposed to CSDS and subsequently administered compound 25 or vehicle every other day for 12 days (FIG. 14A). To examine the effect of compound 25 treatment on behavioral phenotypes induced by CSDS, we first tested the mice in the three-chambered social approach test, where the social approach of a mouse toward a stranger mouse trapped in a wire cage was measured.

CSDS mice [8] = experiment: Sucrose preference test after CSDS; assay type: in vivo, mouse
Method: as §1
The sucrose preference test was performed according to a previously described protocol (Cao et al, 2013; Roybal et al, 2007). The mice were singly caged before the test. On day 1, their normal water bottles were replaced with two 50 ml tubes (bottle ‘A’ and bottle ‘B’) fitted with bottle stoppers containing two-balled sipper tubes. The position of bottles A and B were switched daily to avoid a side bias, and the fluid consumed from each bottle was measured daily. During days 1 and 2, bottles A and B were filled with normal drinking water (W/W). During days 3 and 4, both bottles were filled with a solution of 1.5% sucrose dissolved in drinking water (S/S). On days 5-8, bottle A contained 1.5% sucrose, and bottle B contained drinking water […]. Sucrose preference on each day for each mouse was calculated as 100%×(Vol A/(Vol A+Vol B)) and averaged across the days for a given condition (W/W, S/S, or S/W). The average of total fluid consumption was also calculated as (Vol A+Vol B).
To examine the effect of compound 25 treatment on anhedonia-like behavior, control and CSDS mice were subjected to an 8-day sucrose preference test.

[9] = DON 1 mg/kg, i.p., […], 30 days post-infection

CC(C)OC(=O)[C@H](CCC(=O)C=[N+]=[N-])NC(=O)OC(OC(=O)C(C)(C)C)c1ccccc1 (stereo partly drawn) [Compound 47]
CSF-to-plasma ratio of DON relative to DON [1]: increased CSF-to-plasma ratios
amount of DON delivered to the CSF relative to DON [1]: substantially higher amounts of DON to the CSF

CC(C)OC(=O)[C@H](CCC(=O)C=[N+]=[N-])NC(=O)O[C@H](C)OC(=O)C(C)(C)C (single isomer, unassigned) [Compound 14b]
stability in human plasma [2]: unexpected stability
stability in monkey plasma [3]: unexpected stability
CSF-to-plasma ratio of DON relative to DON [1]: increased CSF-to-plasma ratios
amount of DON delivered to the CSF relative to DON [1]: substantially higher amounts of DON to the CSF

CC(C)C[C@H](N)C(=O)N[C@@H](CCC(=O)C=[N+]=[N-])C(=O)OC(C)C [Compound 9]
LPS-induced reduced freezing during the reconsolidation test (Day 3) (LPS-treated mice): attenuated; also recorded: indistinguishable from PBS/Veh mice

[N-]=[N+]=CC(=O)CC[C@H](N)C(=O)O [DON, 6-diazo-5-oxo-L-norleucine]
cognitive disease (radial arm water maze) (EcoHIV-infected mice [4]): completely abrogates (reverses) cognitive disease
STX1A gene expression in basal ganglia (STX1A): reversed HIV-mediated down-modulation
NRGN gene expression in basal ganglia (NRGN): reversed HIV-mediated down-modulation
concentration at 15 min ([5]; CSF, read-out: DON concentration in CSF): 300 to 500 nM
concentration at 15 min ([5]; brain (basal ganglia), read-out: DON concentration in brain tissue (basal ganglia)): 300 to 500 nM
concentration at 15 min ([5]; plasma, read-out: DON concentration in plasma): 2500 to 3000 nM
glutamate in CSF of EcoHIV mice (glutamate in CSF; DON-treated mice, no significant differences by one-way ANOVA): tended to decrease the glutamate in the EcoHIV mice
EAE (disease score), DON from time of immunization (EAE mice; DON i.p. q.a.d. 1.6 mg/kg from the time of immunization (Shijie, et al., 2009)): attenuates EAE
EAE (disease score), lower doses of DON (EAE mice; DON i.p. q.a.d., doses lower than 1.6 mg/kg (Shijie, et al., 2009)): ineffective
HIV-induced cognitive impairment (radial arm water test, learning and memory) (EcoHIV-infected mice [6]; DON 1 mg/kg on alternate days from 24 h before EcoHIV infection, tested 30 days after infection): prevents development of HIV-induced cognitive impairment
cognitive performance as measured by errors (RAWM, hidden platform) (EcoHIV-infected mice [6]; [9]): fully normalized cognitive performance
cognitive performance as measured by latency to escape (RAWM, hidden platform) (EcoHIV-infected mice [6]; [9]): fully normalized cognitive performance

CCOC(=O)[C@H](CCC(=O)C=[N+]=[N-])NC(=O)[C@@H](N)CC(C)C [Compound 25]
EcoHIV-induced increases in CSF glutamate concentration (glutamate in CSF; 1.82 mg/kg, i.p. every other day, CSF sampled day 33 post-inoculation, 30 minutes post-last dose): significantly reversed EcoHIV-induced increases in CSF glutamate concentration
social behaviors (time in chamber, time sniffing) in mice subjected to CSDS (CSDS mice [7]; 1.82 mg/kg p.o. (1 mg/kg DON equivalent) every other day for 12 days after CSDS): normalized observed social behaviors
sociability in control mice (CSDS mice [7]; 1.82 mg/kg p.o. every other day for 12 days, control mice): no effect on sociability in control mice
sucrose consumption (sucrose preference) in the CSDS group, days 5-8 (CSDS mice [8]; 1.82 mg/kg p.o. (1 mg/kg DON equivalent), CSDS mice): markedly restored sucrose consumption
sucrose consumption (sucrose preference) in controls, days 5-8 (CSDS mice [8]; 1.82 mg/kg p.o., control mice): no change was observed in controls
